Reference: ChEMBL document CHEMBL4308864, “Targeting tyrosine kinase: Development of acridone - pyrrole - oxindole hybrids against human breast cancer” (2019)

How the values were obtained:
Type in all cases: functional
CCRF-CEM = test: Growth inhibition of human CCRF-CEM cells assessed as cell growth at 10^-5 M incubated for 48 hrs by sulforhodamine B assay relative to control; settings: read-out: Activity
K562 = test: Growth inhibition of human K562 cells assessed as cell growth at 10^-5 M incubated for 48 hrs by sulforhodamine B assay relative to control; settings: K562, 48 h, read-out: Activity
RPMI-8226 = test: Growth inhibition of human RPMI8226 cells assessed as cell growth at 10^-5 M incubated for 48 hrs by sulforhodamine B assay relative to control; settings: RPMI-8226, 48 h, read-out: Activity
SR = test: Growth inhibition of human SR cells assessed as cell growth at 10^-5 M incubated for 48 hrs by sulforhodamine B assay relative to control; settings: read-out: Activity
HOP-62 = test: Growth inhibition of human HOP62 cells assessed as cell growth at 10^-5 M incubated for 48 hrs by sulforhodamine B assay relative to control; settings: HOP-62, 48 h, read-out: Activity
NCI-H226 = test: Growth inhibition of human NCI-H226 cells assessed as cell growth at 10^-5 M incubated for 48 hrs by sulforhodamine B assay relative to control; settings: NCI-H226, 48 h, read-out: Activity
NCI-H23 = test: Growth inhibition of human NCI-H23 cells assessed as cell growth at 10^-5 M incubated for 48 hrs by sulforhodamine B assay relative to control; settings: NCI-H23, 48 h, read-out: Activity
NCI-H460 = test: Growth inhibition of human NCI-H460 cells assessed as cell growth at 10^-5 M incubated for 48 hrs by sulforhodamine B assay relative to control; settings: NCI-H460, 48 h, read-out: Activity
NCI-H522 = test: Growth inhibition of human NCI-H522 cells assessed as cell growth at 10^-5 M incubated for 48 hrs by sulforhodamine B assay relative to control; settings: NCI-H522, 48 h, read-out: Activity
COLO 205 = test: Growth inhibition of human COLO205 cells assessed as cell growth at 10^-5 M incubated for 48 hrs by sulforhodamine B assay relative to control; settings: COLO 205, 48 h, read-out: Activity
HCC 2998 = test: Growth inhibition of human HCC2998 cells assessed as cell growth at 10^-5 M incubated for 48 hrs by sulforhodamine B assay relative to control; settings: HCC 2998, 48 h, read-out: Activity
HT-29 = test: Growth inhibition of human HT-29 cells assessed as cell growth at 10^-5 M incubated for 48 hrs by sulforhodamine B assay relative to control; settings: HT-29, 48 h, read-out: Activity
SF-539 = test: Growth inhibition of human SF539 cells assessed as cell growth at 10^-5 M incubated for 48 hrs by sulforhodamine B assay relative to control; settings: SF-539, 48 h, read-out: Activity
SNB-75 = test: Growth inhibition of human SNB75 cells assessed as cell growth at 10^-5 M incubated for 48 hrs by sulforhodamine B assay relative to control; settings: SNB-75, 48 h, read-out: Activity
LOX IMVI = test: Growth inhibition of human LOXIMVI cells assessed as cell growth at 10^-5 M incubated for 48 hrs by sulforhodamine B assay relative to control; settings: read-out: Activity
MDA-MB-435 = test: Growth inhibition of human MDA-MB-435 cells assessed as cell growth at 10^-5 M incubated for 48 hrs by sulforhodamine B assay relative to control; settings: MDA-MB-435, 48 h, read-out: Activity
SK-MEL-5 = test: Growth inhibition of human SK-MEL-5 cells assessed as cell growth at 10^-5 M incubated for 48 hrs by sulforhodamine B assay relative to control; settings: SK-MEL-5, 48 h, read-out: Activity
UACC-257 = test: Growth inhibition of human UACC257 cells assessed as cell growth at 10^-5 M incubated for 48 hrs by sulforhodamine B assay relative to control; settings: UACC-257, 48 h, read-out: Activity
OVCAR-3 = test: Growth inhibition of human OVCAR3 cells assessed as cell growth at 10^-5 M incubated for 48 hrs by sulforhodamine B assay relative to control; settings: OVCAR-3, 48 h, read-out: Activity
OVCAR-4 = test: Growth inhibition of human OVCAR4 cells assessed as cell growth at 10^-5 M incubated for 48 hrs by sulforhodamine B assay relative to control; settings: OVCAR-4, 48 h, read-out: Activity
OVCAR-5 = test: Growth inhibition of human OVCAR5 cells assessed as cell growth at 10^-5 M incubated for 48 hrs by sulforhodamine B assay relative to control; settings: OVCAR-5, 48 h, read-out: Activity
OVCAR-8 = test: Growth inhibition of human OVCAR8 cells assessed as cell growth at 10^-5 M incubated for 48 hrs by sulforhodamine B assay relative to control; settings: OVCAR-8, 48 h, read-out: Activity
NCI/ADR-RES = test: Growth inhibition of human NCI/ADR-RES cells assessed as cell growth at 10^-5 M incubated for 48 hrs by sulforhodamine B assay relative to control; settings: read-out: Activity
786-0 = test: Growth inhibition of human 786-0 cells assessed as cell growth at 10^-5 M incubated for 48 hrs by sulforhodamine B assay relative to control; settings: 786-0, 48 h, read-out: Activity
CAKI-1 = test: Growth inhibition of human Caki1 cells assessed as cell growth at 10^-5 M incubated for 48 hrs by sulforhodamine B assay relative to control; settings: CAKI-1, 48 h, read-out: Activity
SN12C = test: Growth inhibition of human SN12C cells assessed as cell growth at 10^-5 M incubated for 48 hrs by sulforhodamine B assay relative to control; settings: read-out: Activity
TK-10 = test: Growth inhibition of human TK10 cells assessed as cell growth at 10^-5 M incubated for 48 hrs by sulforhodamine B assay relative to control; settings: TK-10, 48 h, read-out: Activity
PC-3 = test: Growth inhibition of human PC3 cells assessed as cell growth at 10^-5 M incubated for 48 hrs by sulforhodamine B assay relative to control; settings: PC-3, 48 h, read-out: Activity
DU-145 = test: Growth inhibition of human DU145 cells assessed as cell growth at 10^-5 M incubated for 48 hrs by sulforhodamine B assay relative to control; settings: DU-145, 48 h, read-out: Activity
MDA-MB-231 = test: Growth inhibition of human MDA-MB-231 cells assessed as cell growth at 10^-5 M incubated for 48 hrs by sulforhodamine B assay relative to control; settings: MDA-MB-231, 48 h, read-out: Activity
Hs-578T = test: Growth inhibition of human Hs578T cells assessed as cell growth at 10^-5 M incubated for 48 hrs by sulforhodamine B assay relative to control; settings: read-out: Activity
BT-549 = test: Growth inhibition of human BT549 cells assessed as cell growth at 10^-5 M incubated for 48 hrs by sulforhodamine B assay relative to control; settings: BT-549, 48 h, read-out: Activity

O=C1NC(=O)C(=Cc2cccn2CCCn2c3ccccc3c(=O)c3ccccc32)C(=O)N1
growth at 10 µM (CCRF-CEM): 92.7%
growth at 10 µM (K562): 88.4%
growth at 10 µM (RPMI-8226): 88%
growth at 10 µM (SR): 91.8%
growth at 10 µM (HOP-62): 98.1%
growth at 10 µM (NCI-H226): 96.3%
growth at 10 µM (NCI-H23): 104%
growth at 10 µM (NCI-H460): 105%
growth at 10 µM (NCI-H522): 88.6%
growth at 10 µM (COLO 205): 108%
growth at 10 µM (HCC 2998): 104%
growth at 10 µM (HT-29): 99.7%
growth at 10 µM (SF-539): 102%
growth at 10 µM (SNB-75): 95.7%
growth at 10 µM (LOX IMVI): 96.9%
growth at 10 µM (MDA-MB-435): 104%
growth at 10 µM (SK-MEL-5): 95.2%
growth at 10 µM (UACC-257): 102%
growth at 10 µM (OVCAR-3): 112%
growth at 10 µM (OVCAR-4): 104%
growth at 10 µM (OVCAR-5): 99.9%
growth at 10 µM (OVCAR-8): 101%
growth at 10 µM (NCI/ADR-RES): 101%
growth at 10 µM (786-0): 96.3%
growth at 10 µM (CAKI-1): 96.7%
growth at 10 µM (SN12C): 101%
growth at 10 µM (TK-10): 96.6%
growth at 10 µM (PC-3): 98.9%
growth at 10 µM (DU-145): 108%
growth at 10 µM (MDA-MB-231): 99.4%
growth at 10 µM (Hs-578T): 115%
growth at 10 µM (BT-549): 98.9%

O=C1NC(=O)C(=Cc2cccn2CCCCn2c3ccccc3c(=O)c3ccccc32)C(=O)N1
growth at 10 µM (CCRF-CEM): 64.1%
growth at 10 µM (K562): 58.9%
growth at 10 µM (RPMI-8226): 49.4%
growth at 10 µM (SR): 51.6%
growth at 10 µM (HOP-62): 79.1%
growth at 10 µM (NCI-H226): 88.7%
growth at 10 µM (NCI-H23): 81.7%
growth at 10 µM (NCI-H460): 90.2%
growth at 10 µM (NCI-H522): 70.5%
growth at 10 µM (COLO 205): 100%
growth at 10 µM (HCC 2998): 100%
growth at 10 µM (HT-29): 90.2%
growth at 10 µM (SF-539): 85.4%
growth at 10 µM (SNB-75): 92.6%
growth at 10 µM (LOX IMVI): 82.6%
growth at 10 µM (MDA-MB-435): 79.9%
growth at 10 µM (SK-MEL-5): 73.8%
growth at 10 µM (UACC-257): 91.4%
growth at 10 µM (OVCAR-3): 96.6%
growth at 10 µM (OVCAR-4): 87.2%
growth at 10 µM (OVCAR-5): 91.8%
growth at 10 µM (OVCAR-8): 86.4%
growth at 10 µM (NCI/ADR-RES): 88.4%
growth at 10 µM (786-0): 86.6%
growth at 10 µM (CAKI-1): 82.9%
growth at 10 µM (SN12C): 86.6%
growth at 10 µM (TK-10): 92.4%
growth at 10 µM (PC-3): 86.3%
growth at 10 µM (DU-145): 92.2%
growth at 10 µM (MDA-MB-231): 82.5%
growth at 10 µM (Hs-578T): 85.1%
growth at 10 µM (BT-549): 88.1%
